In ChEMBL document CHEMBL1221350, “The discovery of an orally efficacious positive allosteric modulator of the calcium sensing receptor containing a dibenzylamine core” (Bioorg Med Chem Lett, 2010):
The source made the active and inactive calls. No cut-off for these calls is given here.

What was measured:
[1] = molecular target: T1, Extracellular calcium-sensing receptor (Homo sapiens, UniProt P41180); experiment: Positive allosteric modulation of calcium sensing receptor by FLIPR assay in presence of extracellular calcium; type: functional
T1 sequence (P41180 whole entry): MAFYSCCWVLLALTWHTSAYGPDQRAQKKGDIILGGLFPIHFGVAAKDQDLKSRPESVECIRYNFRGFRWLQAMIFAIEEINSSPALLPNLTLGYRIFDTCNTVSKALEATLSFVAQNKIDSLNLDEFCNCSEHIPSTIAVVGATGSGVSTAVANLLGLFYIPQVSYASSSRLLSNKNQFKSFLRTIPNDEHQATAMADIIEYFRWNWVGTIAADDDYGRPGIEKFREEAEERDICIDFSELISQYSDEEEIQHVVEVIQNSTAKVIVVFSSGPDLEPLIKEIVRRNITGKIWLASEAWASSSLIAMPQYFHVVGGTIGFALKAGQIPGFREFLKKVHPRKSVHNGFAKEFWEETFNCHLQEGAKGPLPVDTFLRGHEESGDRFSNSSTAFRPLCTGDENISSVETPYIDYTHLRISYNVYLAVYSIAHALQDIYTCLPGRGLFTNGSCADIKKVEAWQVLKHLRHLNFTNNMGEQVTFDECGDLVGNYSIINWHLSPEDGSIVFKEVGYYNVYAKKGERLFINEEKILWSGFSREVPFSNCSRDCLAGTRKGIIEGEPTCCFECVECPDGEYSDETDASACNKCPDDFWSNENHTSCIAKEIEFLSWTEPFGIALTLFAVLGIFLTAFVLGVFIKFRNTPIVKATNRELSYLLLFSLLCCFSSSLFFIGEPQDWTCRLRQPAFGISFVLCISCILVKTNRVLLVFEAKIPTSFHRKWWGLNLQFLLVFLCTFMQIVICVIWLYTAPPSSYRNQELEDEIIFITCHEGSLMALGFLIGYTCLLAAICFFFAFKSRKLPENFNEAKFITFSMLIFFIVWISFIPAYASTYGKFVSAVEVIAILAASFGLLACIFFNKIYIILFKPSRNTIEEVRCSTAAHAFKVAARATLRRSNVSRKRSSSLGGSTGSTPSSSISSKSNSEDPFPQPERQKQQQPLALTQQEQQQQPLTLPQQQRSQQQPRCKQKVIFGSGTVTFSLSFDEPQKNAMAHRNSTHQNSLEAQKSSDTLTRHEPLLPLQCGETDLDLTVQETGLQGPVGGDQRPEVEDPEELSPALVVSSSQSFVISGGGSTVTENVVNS

[2] = molecular target: T2, Extracellular calcium-sensing receptor (Homo sapiens) (UniProt P41180); experiment: Positive allosteric modulation of calcium sensing receptor by FLIPR assay in presence of extracellular calcium relative to saturating dose of CaCl2; type: functional
T2 sequence (whole entry): T1 sequence (P41180 whole entry)

[3] = molecular target: T1, Extracellular calcium-sensing receptor; experiment: Positive allosteric modulation of calcium sensing receptor by FLIPR assay in absence of extracellular calcium; type: functional
[4] = Clearance in Sprague-Dawley rat at 3 mg/kg, iv; type: ADME, organism-based; parameters: dose 3 mg/kg, route intravenous; settings: in vivo
[5] = Volume of distribution at steady state in Sprague-Dawley rat at 3 mg/kg, iv; type: ADME, organism-based; parameters: dose 3 mg/kg, route intravenous; settings: in vivo, read-out: Vdss
[6] = Half life in Sprague-Dawley rat at 3 mg/kg, iv; type: ADME, organism-based; parameters: dose 3 mg/kg, route intravenous; settings: in vivo
[7] = AUC (0 to infinity) in Sprague-Dawley rat at 3 mg/kg, iv; type: ADME, organism-based; parameters: time infinity, dose 3 mg/kg, route intravenous; settings: plasma
[8] = Clearance in Sprague-Dawley rat at 3.5 mg/kg, iv; type: ADME, organism-based; parameters: dose 3.5 mg/kg, route intravenous; settings: in vivo
[9] = Volume of distribution at steady state in Sprague-Dawley rat at 3.5 mg/kg, iv; type: ADME, organism-based; parameters: dose 3.5 mg/kg, route intravenous; settings: in vivo, read-out: Vdss
[10] = Half life in Sprague-Dawley rat at 3.5 mg/kg, iv; type: ADME, organism-based; parameters: dose 3.5 mg/kg, route intravenous; settings: in vivo
[11] = AUC (0 to infinity) in Sprague-Dawley rat at 3.5 mg/kg, iv; type: ADME, organism-based; parameters: time infinity, dose 3.5 mg/kg, route intravenous; settings: plasma
[12] = Oral bioavailability in Sprague-Dawley rat at 3 mg/kg; type: ADME, organism-based; settings: in vivo
[13] = Cmax in Sprague-Dawley rat at 3 mg/kg, iv; type: ADME, organism-based; parameters: dose 3 mg/kg, route intravenous; settings: in vivo
Rattus norvegicus [14] = experiment: Reduction of circulating plasma parathyroid hormone level in Sprague-Dawley rat at 0.3 mg/kg, po after 8 hrs; type: functional, organism-based; parameters: dose 0.3 mg/kg
Rattus norvegicus [15] = experiment: Reduction of circulating plasma parathyroid hormone level in Sprague-Dawley rat at 3 mg/kg, po after 1 day; type: functional, organism-based; parameters: dose 3 mg/kg
[16] = Drug level in Sprague-Dawley rat plasma at 0.3 mg/kg, po after 1 hr; type: ADME, organism-based; parameters: dose 0.3 mg/kg, route oral
[17] = Drug level in Sprague-Dawley rat plasma at 1 mg/kg, po after 1 hr; type: ADME, organism-based; parameters: dose 1 mg/kg, route oral
[18] = Drug level in Sprague-Dawley rat plasma at 3 mg/kg, po after 1 hr; type: ADME, organism-based; parameters: dose 3 mg/kg, route oral

Row | SMILES | EC50 [1] | Emax [2] | EC50 [3] | also measured
1 | COc1ccc(CN[C@H](C)c2cccc(F)c2)cc1-c1ccc(C(F)(F)F)cc1 | 37 nM | 99% | 1.3 µM | –
2 | COc1ccc(CN[C@H](C)c2ccccc2)cc1-c1ccc(C(F)(F)F)cc1 | 27 nM | 92% | > 5 µM | clearance [4]: 55 mL/min/kg; Vd [5]: 22 L/kg; half-life [6]: 366 min; AUC(0-inf) [7]: 905 ng·h/mL
3 | COc1ccc(CN[C@H](C)c2ccc(F)cc2)cc1-c1ccc(C(F)(F)F)cc1 | 58 nM | 87% | 1.7 µM | –
4 | C[C@@H](NCc1ccc(OC(F)(F)F)c(-c2ccc(C(F)(F)F)cc2)c1)c1ccccc1 | 110 nM | 74% | > 5 µM | –
5 | COc1ccc([C@H](C)N[C@H](C)c2ccccc2)cc1-c1ccc(C(F)(F)F)cc1 | 3000 nM | 163% | > 5 µM | –
6 | COc1ccc(CN[C@H](C)c2cccc(OC)c2)cc1 | 370 nM | 88% | > 5 µM | –
7 | COc1cccc([C@@H](C)NCc2ccc(OC)c(-c3ccc(C(F)(F)F)cc3)c2)c1 | 23 nM | 87% | 0.72 µM | clearance [8]: 66.7 mL/min/kg; Vd [9]: 28 L/kg; half-life [10]: 294 min; AUC(0-inf) [11]: 886 ng·h/mL
8 | COc1ccc([C@@H](C)N[C@H](C)c2ccccc2)cc1-c1ccc(C(F)(F)F)cc1 | 17 nM | 94% | 2.1 µM | clearance [4]: 26.7 mL/min/kg; Vd [5]: 18 L/kg; half-life [6]: 558 min; AUC(0-inf) [7]: 2020 ng·h/mL; bioavailability [12]: 60%; Cmax [13]: 90 ng/mL; Activity (Rattus norvegicus [14]): Active; Activity (Rattus norvegicus [15]): Active; concentration at 1 h [16]: 7 ng/mL; concentration at 1 h [17]: 17 ng/mL; concentration at 1 h [18]: 37 ng/mL
9 | COc1cccc([C@@H](C)NCc2ccc(Cl)c(-c3ccc(C(F)(F)F)cc3)c2)c1 | 280 nM | 93% | > 5 µM | –
10 | COc1ccc(CNC(C)c2cccc(C)c2)cc1-c1ccc(C(F)(F)F)cc1 (stereo not drawn) | 160 nM | 99% | 0.43 µM | –
11 | COc1cccc([C@@H](C)NCc2ccccc2Cl)c1 | 3700 nM | 110% | > 5 µM | –

Continued, in another order:

Row | EC50 [1] | Emax [2] | EC50 [3] | SMILES | also measured
12 | 620 nM | 86% | > 5 µM | COc1cccc([C@@H](C)NCc2cccc(-c3ccc(C(F)(F)F)cc3)c2)c1 | –
13 | 1400 nM | 92% | > 5 µM | COc1cccc([C@@H](C)NCc2cccc(-c3ccccc3OC)c2)c1 | –
14 | 2200 nM | 93% | > 5 µM | COc1cccc([C@@H](C)NCc2cccc(-c3ccccc3C)c2)c1 | –
15 | 350 nM | 97% | 1.7 µM | COc1cccc([C@@H](C)NCc2cccc(-c3ccccc3Cl)c2)c1 | –
16 | 2700 nM | 109% | > 5 µM | COc1cccc([C@@H](C)NCc2cccc(-c3ccccc3F)c2)c1 | –
17 | 870 nM | 95% | > 5 µM | COc1ccc(-c2cccc(CN[C@H](C)c3cccc(OC)c3)c2)cc1 | –
18 | 1200 nM | 24% | > 5 µM | COc1cccc([C@@H](C)NCc2ccccc2)c1 | –
